Assay results reported in article PMC10938783, “A novel pan-PI3K inhibitor KTC1101 synergizes with anti-PD-1 therapy by targeting tumor suppression and immune activation” (Molecular Cancer, 2024).

Tested on: B16 cells gene expression
Experiment: RNA-Seq (DEGs, GSEA, heatmaps) of B16 cells
Conditions: B16 cells

SMILES: COc1cc(N)cc2c1nc(C(F)F)n2-c1nc(N2CCCOCC2)nc(N2CCOCC2)n1 [KTC1101, 2-(difluoromethyl)-4-methoxy-1-(4-morpholino-6-(1,4-oxazepan-4-yl)-1,3,5-triazin-2-yl)-1H-benzo[d]imidazol-6-amine]
- NES: Fat digestion and absorption (GSEA KEGG mmu04975, KTC 0.2μM): -1.65
- enrichmentScore: Fat digestion and absorption (GSEA KEGG mmu04975, KTC 0.2μM): -0.5488
- NES: Bile secretion (GSEA KEGG mmu04976, KTC 0.2μM): 1.51
- enrichmentScore: Bile secretion (GSEA KEGG mmu04976, KTC 0.2μM): 0.4976
- NES: Mineral absorption (GSEA KEGG mmu04978, KTC 0.2μM): -1.388
- enrichmentScore: Mineral absorption (GSEA KEGG mmu04978, KTC 0.2μM): -0.4138
- NES: Cholesterol metabolism (GSEA KEGG mmu04979, KTC 0.2μM): -1.456
- enrichmentScore: Cholesterol metabolism (GSEA KEGG mmu04979, KTC 0.2μM): -0.4442
- NES: Alzheimer disease (GSEA KEGG mmu05010, KTC 0.2μM): -1.608
- enrichmentScore: Alzheimer disease (GSEA KEGG mmu05010, KTC 0.2μM): -0.3072
- NES: Parkinson disease (GSEA KEGG mmu05012, KTC 0.2μM): -1.964
- enrichmentScore: Parkinson disease (GSEA KEGG mmu05012, KTC 0.2μM): -0.3949
- NES: Amyotrophic lateral sclerosis (GSEA KEGG mmu05014, KTC 0.2μM): -1.71
- enrichmentScore: Amyotrophic lateral sclerosis (GSEA KEGG mmu05014, KTC 0.2μM): -0.329
- NES: Huntington disease (GSEA KEGG mmu05016, KTC 0.2μM): -1.539
- enrichmentScore: Huntington disease (GSEA KEGG mmu05016, KTC 0.2μM): -0.3057
- NES: Prion disease (GSEA KEGG mmu05020, KTC 0.2μM): -1.774
- enrichmentScore: Prion disease (GSEA KEGG mmu05020, KTC 0.2μM): -0.3631
- NES: Pathways of neurodegeneration - multiple diseases (GSEA KEGG mmu05022, KTC 0.2μM): -1.25
- enrichmentScore: Pathways of neurodegeneration - multiple diseases (GSEA KEGG mmu05022, KTC 0.2μM): -0.2359
- NES: Morphine addiction (GSEA KEGG mmu05032, KTC 0.2μM): 2.084
- enrichmentScore: Morphine addiction (GSEA KEGG mmu05032, KTC 0.2μM): 0.6804
- NES: Leishmaniasis (GSEA KEGG mmu05140, KTC 0.2μM): 1.636
- enrichmentScore: Leishmaniasis (GSEA KEGG mmu05140, KTC 0.2μM): 0.5458
- NES: Chagas disease (GSEA KEGG mmu05142, KTC 0.2μM): 1.762
- enrichmentScore: Chagas disease (GSEA KEGG mmu05142, KTC 0.2μM): 0.5294
- NES: Amoebiasis (GSEA KEGG mmu05146, KTC 0.2μM): 1.187
- enrichmentScore: Amoebiasis (GSEA KEGG mmu05146, KTC 0.2μM): 0.3662
- NES: Hepatitis B (GSEA KEGG mmu05161, KTC 0.2μM): 1.161
- enrichmentScore: Hepatitis B (GSEA KEGG mmu05161, KTC 0.2μM): 0.3151
- NES: Human cytomegalovirus infection (GSEA KEGG mmu05163, KTC 0.2μM): 1.262
- enrichmentScore: Human cytomegalovirus infection (GSEA KEGG mmu05163, KTC 0.2μM): 0.333
- NES: Human T-cell leukemia virus 1 infection (GSEA KEGG mmu05166, KTC 0.2μM): 1.309
- enrichmentScore: Human T-cell leukemia virus 1 infection (GSEA KEGG mmu05166, KTC 0.2μM): 0.342
- NES: Kaposi sarcoma-associated herpesvirus infection (GSEA KEGG mmu05167, KTC 0.2μM): 1.355
- enrichmentScore: Kaposi sarcoma-associated herpesvirus infection (GSEA KEGG mmu05167, KTC 0.2μM): 0.3649
- NES: Herpes simplex virus 1 infection (GSEA KEGG mmu05168, KTC 0.2μM): 1.765
- enrichmentScore: Herpes simplex virus 1 infection (GSEA KEGG mmu05168, KTC 0.2μM): 0.4327
- NES: Transcriptional misregulation in cancer (GSEA KEGG mmu05202, KTC 0.2μM): 1.705
- enrichmentScore: Transcriptional misregulation in cancer (GSEA KEGG mmu05202, KTC 0.2μM): 0.4772
- NES: Proteoglycans in cancer (GSEA KEGG mmu05205, KTC 0.2μM): 1.25
- enrichmentScore: Proteoglycans in cancer (GSEA KEGG mmu05205, KTC 0.2μM): 0.3314
- NES: Chemical carcinogenesis - reactive oxygen species (GSEA KEGG mmu05208, KTC 0.2μM): -1.582
- enrichmentScore: Chemical carcinogenesis - reactive oxygen species (GSEA KEGG mmu05208, KTC 0.2μM): -0.3305
- NES: Prostate cancer (GSEA KEGG mmu05215, KTC 0.2μM): 1.478
- enrichmentScore: Prostate cancer (GSEA KEGG mmu05215, KTC 0.2μM): 0.4248
- NES: Basal cell carcinoma (GSEA KEGG mmu05217, KTC 0.2μM): -1.6573
- enrichmentScore: Basal cell carcinoma (GSEA KEGG mmu05217, KTC 0.2μM): -0.5057
- NES: Acute myeloid leukemia (GSEA KEGG mmu05221, KTC 0.2μM): 1.189
- enrichmentScore: Acute myeloid leukemia (GSEA KEGG mmu05221, KTC 0.2μM): 0.3668
- NES: Small cell lung cancer (GSEA KEGG mmu05222, KTC 0.2μM): 1.1778
- enrichmentScore: Small cell lung cancer (GSEA KEGG mmu05222, KTC 0.2μM): 0.3365
- NES: Breast cancer (GSEA KEGG mmu05224, KTC 0.2μM): 1.3909
- enrichmentScore: Breast cancer (GSEA KEGG mmu05224, KTC 0.2μM): 0.3926
- NES: Hepatocellular carcinoma (GSEA KEGG mmu05225, KTC 0.2μM): -1.183
- enrichmentScore: Hepatocellular carcinoma (GSEA KEGG mmu05225, KTC 0.2μM): -0.2565
- NES: Gastric cancer (GSEA KEGG mmu05226, KTC 0.2μM): 1.191
- enrichmentScore: Gastric cancer (GSEA KEGG mmu05226, KTC 0.2μM): 0.3347
- NES: Central carbon metabolism in cancer (GSEA KEGG mmu05230, KTC 0.2μM): -1.65
- enrichmentScore: Central carbon metabolism in cancer (GSEA KEGG mmu05230, KTC 0.2μM): -0.4278
- NES: Inflammatory bowel disease (GSEA KEGG mmu05321, KTC 0.2μM): 1.418
- enrichmentScore: Inflammatory bowel disease (GSEA KEGG mmu05321, KTC 0.2μM): 0.5282
- NES: Rheumatoid arthritis (GSEA KEGG mmu05323, KTC 0.2μM): 1.449
- enrichmentScore: Rheumatoid arthritis (GSEA KEGG mmu05323, KTC 0.2μM): 0.4777
- NES: Hypertrophic cardiomyopathy (GSEA KEGG mmu05410, KTC 0.2μM): 1.341
- enrichmentScore: Hypertrophic cardiomyopathy (GSEA KEGG mmu05410, KTC 0.2μM): 0.4238
- NES: Dilated cardiomyopathy (GSEA KEGG mmu05414, KTC 0.2μM): 1.501
- enrichmentScore: Dilated cardiomyopathy (GSEA KEGG mmu05414, KTC 0.2μM): 0.4674
- NES: Diabetic cardiomyopathy (GSEA KEGG mmu05415, KTC 0.2μM): -1.29
- enrichmentScore: Diabetic cardiomyopathy (GSEA KEGG mmu05415, KTC 0.2μM): -0.2769
- NES: Fluid shear stress and atherosclerosis (GSEA KEGG mmu05418, KTC 0.2μM): -1.4518
- enrichmentScore: Fluid shear stress and atherosclerosis (GSEA KEGG mmu05418, KTC 0.2μM): -0.3333
- NES, mmu00071 Fatty acid degradation (KTC1101 0.2μM, GSEA KEGG): 0.7528
- NES, mmu00310 Lysine degradation (KTC1101 0.2μM, GSEA KEGG): -0.7398
- NES, mmu00380 Tryptophan metabolism (KTC1101 0.2μM, GSEA KEGG): 1.209
- NES, mmu00500 Starch and sucrose metabolism (KTC1101 0.2μM, GSEA KEGG): -1.196
- NES, mmu00510 N-Glycan biosynthesis (KTC1101 0.2μM, GSEA KEGG): -0.6482
- NES, mmu00513 Various types of N-glycan biosynthesis (KTC1101 0.2μM, GSEA KEGG): 1.019
- NES, mmu00514 Other types of O-glycan biosynthesis (KTC1101 0.2μM, GSEA KEGG): 1.221
- NES, mmu00562 Inositol phosphate metabolism (KTC1101 0.2μM, GSEA KEGG): -1.021
- NES, mmu00564 Glycerophospholipid metabolism (KTC1101 0.2μM, GSEA KEGG): -0.7177
